{
  "source": "patent US20170355736A1",
  "about": "“MORTALIN PEPTIDES AND ANTIBODIES AND USES THEREOF FOR INHIBITING MORTALIN ACTIVITY AND TREATING A DISEASE ASSOCIATED WITH A PATHOLOGICAL CELL” (Ramot at Tel-Aviv University Ltd., priority 2014, published 2017)",
  "key": {"[1]": {"tested_on": "leukemia and lymphoma cell lines", "test": "Direct cell killing / direct toxicity (complement independent), overall statement", "format": "cell-based", "design": "key: ↑: enhance; ↓: inhibit; ↑↓: effect depends on dose/time; —: no effect", "settings": "summary of in vitro effects; complement independent cytotoxicity; cell lines and primary B-CLL cells", "experimental": "The toxic effect of these peptides was tested on 3 leukemia/lymphoma cell lines Raji (FIG. 5), Ramos (FIG. 6) and Z-138 (FIG. 7). The cells were treated for 24 hours with the peptides and cell death was determined by propidium iodide labeling and analysis by flow cytometry.\nIn summary, Table 6 below illustrates the relative effects of some of the peptides on mortalin-C9 binding, C9 polymerization, complement-dependent cytotoxicity and complement independent cytotoxicity (direct toxicity)."}, "mortalin-C9 binding": {"biological_target": "mortalin-C9 binding (Homo sapiens, UniProt P02748)", "sequence (P02748 22-559)": "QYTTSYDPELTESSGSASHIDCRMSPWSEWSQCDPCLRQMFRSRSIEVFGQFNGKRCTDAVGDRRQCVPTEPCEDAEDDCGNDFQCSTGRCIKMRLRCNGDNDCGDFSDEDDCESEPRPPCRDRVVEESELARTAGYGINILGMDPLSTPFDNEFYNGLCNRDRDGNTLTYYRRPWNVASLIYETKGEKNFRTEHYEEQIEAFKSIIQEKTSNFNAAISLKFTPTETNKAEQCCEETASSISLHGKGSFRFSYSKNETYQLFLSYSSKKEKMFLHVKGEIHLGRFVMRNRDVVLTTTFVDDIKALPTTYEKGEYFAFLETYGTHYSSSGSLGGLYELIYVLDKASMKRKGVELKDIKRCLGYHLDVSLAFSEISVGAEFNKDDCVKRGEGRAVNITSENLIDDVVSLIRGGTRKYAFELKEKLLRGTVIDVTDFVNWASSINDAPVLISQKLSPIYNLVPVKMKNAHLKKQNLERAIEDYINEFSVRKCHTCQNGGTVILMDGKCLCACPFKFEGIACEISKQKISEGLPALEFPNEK", "test": "ELISA of mortalin binding to C9 with or without mortalin peptides", "design": "key: ↑: enhance; ↓: inhibit; ↑↓: effect depends on dose/time; —: no effect", "settings": "summary of in vitro effects", "experimental": "FIG. 1 is a histogram depicting results of ELISA (enzyme-linked immunosorbent assay) which detected binding of mortalin to C9 in the presence or absence of various mortalin peptides. Purified human C9 (0.057 μM) was attached overnight at 4° C. to wells of a 96-wells plate and then the excess of C9 was washed. Following, His-tagged recombinant mortalin (0.007 μM) was added to the wells for 1 hour at 37° C. with or without the designated peptides (each at a concentration of 170 μM), which were dissolved in 1% BSA (bovine serum albumin). Following incubation with the mortalin and peptides the wells were washed, treated for 1 hour at 37° C. with mouse anti-His antibody (diluted 1:1000) followed by 1 hour incubation at room temperature with peroxidase-labeled goat anti-mouse IgG (diluted 1:10,000), developed with O-phenylenediamine (OPD) and analyzed by an ELISA reader at 492 nm. […]\nMethods of detecting the binding between mortalin and C9 are known in the art [Pilzer et al. Int Immunol (2005) 17:1239-1248; Pilzer et al. Int J Cancer (2010). […] After incubation of the C9 and mortalin, the excess of the labeled mortalin and of the peptide is removed by washing the plate, and the amount of labeled mortalin which is bound to the surface-attached C9 protein is determined using an anti-His antibody (e.g., a mouse anti-His antibody). […]"}, "[2]": {"tested_on": "primary B-CLL leukemia cells", "test": "Direct cell killing of primary leukemia cell preparations, PI flow cytometry", "format": "cell-based, human", "settings": "peptides with TAT sequence at C-terminal, 20 hours, 50 µM concentration", "experimental": "(§1) FIG. 8 is a histogram depicting cell death of B-CLL leukemia cells by mortalin peptides. […] Mortalin peptides numbers 2, 7, 8, 10, 14 and 16 and a scrambled control peptide (PC) were tested. […] Following, the cells were labeled with PI and analyzed by Flow Cytometry. Percent of dead cells (PI positive) was calculated.\nas §1, with “FIG. 9” for “FIG. 8”\nFIG. 10 is a histogram depicting cell death of B-CLL leukemia cells by mortalin peptides. […] Following, the cells were labeled with PI and analyzed by Flow Cytometry. Percent of dead cells (PI positive) was calculated.\nFIG. 11 is a histogram depicting cell death of B-CLL leukemia cells and normal mononuclear cells by mortalin peptides. […] Following, the cells were labeled with PI and analyzed by Flow Cytometry. Percent of dead cells (PI positive) was calculated.\nBlood drawing from B-CLL patients was approved by the Helsinki Committee of Rabin Medical Center, Petach Tikvah, Israel. […] The cells were treated for 20 hours with the peptides at […] concentration and cell death was determined by propidium iodide labeling and analysis by flow cytometry. […]"}, "K562 cells [3]": {"tested_on": "K562 cells", "test": "Complement independent cytotoxicity, Annexin V/PI, FACS", "format": "cell-based, human", "settings": "stand-alone treatment, 0.8 mM, 24 hours", "experimental": "(§2) Raji or K562 cells were treated without (C) or with 2 mM peptides for 48 hours in their culture medium. Then, the cells were labeled with Annexin/PI and analyzed by Flow Cytometry. FIG. 3A—a histogram depicting the percent of dead cells (Annexin and PI positive) as calculated. FIGS. 3B-D—representative images of cells in control (FIG. 3B) and peptide-treated groups [FIG. 3C (treated with peptide no. 14) and FIG. 3D (treated with peptide no. 16)] stained by DAPI and observed under a fluorescence microscope.\n(§3) The complement independent cytotoxic effect of the peptides—To address the toxic effect of the peptides as single agents, the present inventor tested the effect of the peptides no. 14 and 16 on K562 and Raji human cancer cells. The cells were incubated with the peptides for 24-48 hours in growth medium and then tested for apoptosis using an Annexin V/PI (Propidium Iodide) staining kit followed by FACS analysis."}, "Raji cells": {"tested_on": "Raji cells", "test": "Complement independent cytotoxicity, Annexin V/PI, FACS", "format": "cell-based, human", "settings": "stand-alone treatment, 0.8 mM, 24 hours", "excerpt": "as §2, with “Then,” for “Raji or K562 cells were treated without (C) or with 2 mM peptides for 48 hours in their culture medium. Then,”\nas §3"}, "K562 cells [4]": {"tested_on": "K562 cells", "test": "Complement-dependent cytotoxicity (CDC), antibody + normal human serum, PI inclusion/FACS", "format": "cell-based", "settings": "summary of in vitro effects", "experimental": "K562 cells were either pre-incubated with peptides (60 minutes at 37° C.) and then treated with Rabbit anti-K562 polyclonal antiserum (Ab) and normal human serum (as a source for complement) or treated with Ab and complement in presence of the peptide [Ziporen et al. J. Immunol. (2009) 182: 515-21]. Cell death was measured by PI (Propidium Iodide) inclusion and FACS analysis, after 1 hour treatment at 37° C. The effect of the peptides on complement-dependent cytotoxicity—The next objective was to determine which of the peptides could alter cell death and sensitize cancer cells to complement-dependent cytotoxicity (CDC). Thus, cells were incubated with the peptides prior to antibody and complement treatment (denoted herein as pre-incubation) or treated concomitantly with antibody and complement in the presence of the peptides (denoted herein as without pre-incubation). It should be noted that in cases where the peptide was incubated with the cells prior to addition of the antibody and complement (serum) (noted as “preincubation”) cell cytotoxicity begins as complement independent, and then, upon addition of the antibody and complement can continue as complement dependent. […]"}, "Purified human C9": {"biological_target": "Purified human C9 (Homo sapiens, UniProt P02748)", "sequence (P02748 22-559)": "as above", "test": "Zinc-induced C9 polymerization, SDS-PAGE/Coomassie", "format": "biochemical", "experimental": "FIGS. 2A-B are Coomassie blue stained gels depicting inhibition of C9 polymerization by mortalin or the isolated mortalin peptides. Purified human C9 ([…]) was mixed for 15 minutes at 37° C. with BSA ([…]) as control (lanes marked as “BSA”), mortalin ([…], lanes marked as “mot”) or mortalin peptides (1 mM, lanes marked by “p” and the indicated peptide numbers) that were freshly dissolved in Tris buffered saline (TBS); and then incubated with 42 μM ZnCl2 for 2 hours at 37° C. The first lane on the left, marked “C9” refers to a positive control of the purified C9 without BSA, without mortalin or without the isolated peptides. Samples were subjected to SDS-PAGE on a 2.5-14% acrylamide gradient gel and stained with Coomassie blue. The bands of poly C9 appearing on the top part of the gel are indicated. FIGS. 2A and 2B represent two independent experiments.\nThe effect of the peptides on C9 polymerization—Formation of the complement membrane pores requires that multiple C9 molecules undergo polymerization and generate the doughnut-shape transmembrane complex; thus the effect of the peptides on C9 polymerization was tested. C9 polymerization occurs during C5b-9 generation [Podack and Tschopp, Proc Natl Acad Sci USA. (1982) 79(2):574-8]. […] C9 was mixed with peptides and 42 μM ZnCl2 for 2 hours and the samples were analyzed by SDS-PAGE, on a 2.5-14% acrylamide gradient gel. […]"}},
  "data": [
    {"molecule": "CSCC[C@H](NC(=O)[C@H](Cc1ccc(O)cc1)NC(=O)[C@H](CC(C)C)NC(=O)[C@H](CCC(=O)O)NC(=O)[C@H](CO)NC(=O)[C@H](CCCCN)NC(=O)[C@H](C)NC(=O)[C@H](CCCCN)NC(=O)[C@H](CCC(=O)O)NC(=O)[C@H](C)NC(=O)[C@H](C)NC(=O)[C@H](CCC(=O)O)NC(=O)[C@H](CCCNC(=N)N)NC(=O)[C@@H](NC(=O)[C@H](CCCNC(=N)N)NC(=O)[C@H](CCC(N)=O)NC(=O)[C@H](CC(C)C)NC(=O)[C@H](C)NC(=O)[C@H](CCSC)NC(=O)[C@@H](N)CC(N)=O)C(C)C)C(=O)NCC(=O)N[C@@H](CCCNC(=N)N)C(=O)N[C@@H](CCCCN)C(=O)N[C@@H](CCCCN)C(=O)N[C@@H](CCCNC(=N)N)C(=O)N[C@@H](CCCNC(=N)N)C(=O)N[C@@H](CCC(N)=O)C(=O)N[C@@H](CCCNC(=N)N)C(=O)N[C@@H](CCCNC(=N)N)C(=O)N[C@@H](CCCNC(=N)N)C(=O)O", "note": "[Peptide 8, NMALQRVREAAEKAKSEL]", "values": [
      {"measurement": "Direct toxicity", "setting": "[1]", "value": "↑ (*)—"},
      {"measurement": "Mortalin-C9 binding", "setting": "mortalin-C9 binding", "value": "—"},
      {"measurement": "cell killing effect on primary leukemia cells", "setting": "[2]", "value": "cell killing effect"}
    ]},
    {"molecule": "MVKNAEKYAEEDRYMGRKKRRQRRR (synthetic peptide (TAT modified peptide 14)) [TAT-peptide no: 14]", "values": [
      {"measurement": "capacity to induce apoptosis, TAT-modified versus native peptide no: 14", "setting": "K562 cells [3]", "value": "markedly enhanced the capacity of peptide no: 14 to induce apoptosis"},
      {"measurement": "capacity to induce apoptosis, TAT-modified versus native peptide no: 14", "setting": "Raji cells", "value": "markedly enhanced the capacity of peptide no: 14 to induce apoptosis"}
    ]},
    {"molecule": "Mortalin: human mortalin protein, member of the HSP70 family (SEQ ID NO: 24), recombinant", "values": [
      {"measurement": "Direct toxicity", "setting": "[1]", "value": "—"},
      {"measurement": "Effect on CDC", "setting": "K562 cells [4]", "value": "↓↓↓"},
      {"measurement": "effect on C9 polymerization", "setting": "Purified human C9; peptides 1 mM, mortalin 1.4 mM, 42 μM ZnCl2, 2 hours, 37° C., poly C9 band on gel", "value": "completely inhibited C9 polymerization"},
      {"measurement": "C9 polymerization", "setting": "Purified human C9; summary of in vitro effects", "value": "↓↓↓"}
    ]}
  ]
}
